Results taken from patent publication EP1144369B1 (Wyeth Holdings Corporation, priority 1999, dated 2000).

How the values were obtained:
[1] = molecular target: T1, MMP-1 (Homo sapiens, UniProt P03956); experiment: MMP-1 inhibition (thiopeptide or fluorescent peptide substrate); type: biochemical; settings: for IC50: plain number = IC50; for inhibition at 10 µM: read-out: IC50 (nM) or % Inhibition (µM) MMP-1
T1 sequence (P03956 100-469): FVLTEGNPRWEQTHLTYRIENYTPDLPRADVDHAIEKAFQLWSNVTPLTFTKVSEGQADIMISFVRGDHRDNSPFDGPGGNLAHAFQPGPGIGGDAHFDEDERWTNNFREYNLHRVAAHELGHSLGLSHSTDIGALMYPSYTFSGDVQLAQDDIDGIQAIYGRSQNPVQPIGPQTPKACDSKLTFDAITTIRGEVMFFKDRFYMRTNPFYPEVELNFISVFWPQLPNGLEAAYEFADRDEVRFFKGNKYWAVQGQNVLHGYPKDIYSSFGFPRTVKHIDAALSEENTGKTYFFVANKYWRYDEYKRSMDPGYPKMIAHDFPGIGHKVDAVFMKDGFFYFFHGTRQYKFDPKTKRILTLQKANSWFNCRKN
Experimental: (§1) The enzyme activity is measured by the rate of the color increase. The thiopeptide substrate is made up fresh as a 20 mM stock in 100% DMSO and the DTNB is dissolved in 100% DMSO as a 100 mM stock and stored in the dark at room temperature. Both the substrate and DTNB are diluted together to 1 mM with substrate buffer (50 mM HEPES pH 7.5, 5 mM CaCl2) before use. The stock of enzyme is diluted with buffer (50 mM HEPES, pH 7.5, 5 mM CaCl2, 0.02% Brij) to the desired final concentration.
(§2) Alternatively, a fluorescent peptide substrate is used. In this test procedure, the peptide substrate contains a fluorescent group and a quenching group. Upon cleavage of the substrate by an MMP, the fluorescence that is generated is quantitated on the fluorescence plate reader. The assay is run in HCBC assay buffer (50mM HEPES, pH 7.0, 5 mM Ca^+2, 0.02% Brij, 0.5% Cysteine), with human recombinant MMP-1, MMP-9, or MMP-13. The substrate is dissolved in methanol and stored frozen in 1 mM aliquots. For the assay, substrate and enzymes are diluted in HCBC buffer to the desired concentrations. Compounds are added to the 96 well plate containing enzyme and the reaction is started by the addition of substrate.
(§3) For either the thiopeptide or fluorescent peptide test procedures, the slope of the line is calculated and represents the reaction rate. The linearity of the reaction rate is confirmed (r^2 >0.85). The mean (x±sem) of the control rate is calculated and compared for statistical significance (p<0.05) with drug-treated rates using Dunnett's multiple comparison test.

[2] = molecular target: MMP-9 (Homo sapiens, UniProt P14780); experiment: MMP-9 inhibition (thiopeptide or fluorescent peptide substrate); type: biochemical
Experimental: as §1, §2, §3

[3] = molecular target: MMP-13 (Homo sapiens, UniProt P45452); experiment: MMP-13 inhibition (thiopeptide or fluorescent peptide substrate); type: biochemical
Experimental: as §1, §2, §3

[4] = molecular target: TNF-α converting enzyme (TACE) (Homo sapiens, UniProt P78536); experiment: TACE inhibition (fluorescent peptidyl substrate); type: biochemical; settings: read-out: IC50 (nM) or % Inhibition (µM) TACE
Experimental: Using 96-well black microtiter plates, each well receives a solution composed of 10 µL TACE (final concentration 1µg/mL), 70µL Tris buffer, pH 7.4 containing 10% glycerol (final concentration 10 mM), and 10 µL of test compound solution in DMSO (final concentration 1µM, DMSO concentration <1%) and incubated for 10 minutes at room temperature. The reaction is initiated by addition of a fluorescent peptidyl substrate (final concentration 100 µM) to each well and then shaking on a shaker for 5 sec.
The reaction is read (excitation 340 nm, emission 420 nm) for 10 min. and the increase in fluorescence over time is plotted as a linear line. The slope of the line is calculated and represents the reaction rate.
The linearity of the reaction rate is confirmed (r^2 >0.85). The mean (x±sem) of the control rate is calculated and compared for statistical significance (p<0.05) with drug-treated rates using Dunnett's multiple comparison test.

[5] = system: THP-1 cells; experiment: THP-1 soluble protein assay (LPS-stimulated human monocytic THP-1 cells); type: cell-based; settings: LPS-stimulated THP-1 cells; for inhibition at 3 µM: Homo sapiens, read-out: % Inhib. @ 3µM THP
From the text: Mitogenic stimulation of THP-1 cells cause differentiation into macrophage like cells with concomitant secretion of tumor necrosis factor (TNF-a) and TNF receptor (TNF-R p75/80 and TNF-R p55/60) and Interleukin-8 (IL-8), among other proteins. In addition, non-stimulated THP-1 cells shed both the p75/80 and the p55/60 receptors over time. The release of membrane bound TNF-α and possibly TNF-R p75/80 and TNF-R p55/60, but not IL-8, is mediated by an enzyme called TNF-a converting enzyme or TACE.
THP-1 cells (from ATCC) are a human monocytic cell line which were obtained from the peripheral blood of a person with acute monocytic leukemia. They can be grown in culture and differentiated into macrophage like cells by stimulation with mitogens.
Each vial of cells are cultured for about two weeks prior to being used for an assay and then are used for only 4 to 6 weeks to screen compounds.
Cell exposure to DMSO was limited to 0.1 % final concentration. […] Compounds can be evaluated for their effect on basal (non-stimulated) shedding of the receptors by replacing the LPS with […] of THP-1 media. Plates are placed into an incubator set at 5% CO2 and at 37°C. After 4 hours of incubation, […] of tissue culture supernatant (TCS) is removed for use in an TNF-a ELISA. Following 24 hours of incubation, […] of TCS is removed and used for analysis in TNF-R p75/80, TNF-R p55/60 and IL-8 ELISAs.
In addition, at the 24 hours timepoint, and the cells for each treatment group are collected by resuspension in 500 µl/well of THP-1 media and transferred into a FACS tube. […] The samples are run on a Becton Dickinson FaxCaliber FLOW cytometry machine and the amount of dye taken up by each cell is measured in the high red wavelength (FL3). Only cells with compromised membranes (dead or dying) can take up PI. The percent of live cells is calculated by the number of cells not stained with PI, divided by the total number of cells in the sample. The viability values calculated for the drug treated groups were compared to the viability value calculated for the vehicle treated mitogen stimulated group ("vehicle positive control") to determine the "percent change from control". This "percent change from control" value is an indicator of drug toxicity.
The quantity of soluble TNF-a, TNF-R p75/80 and TNF-R p55/60 and IL-8 in the TCS of the THP-1 cell cultures are obtained with commercially available ELISAs from R&D Systems, by extrapolation from a standard curve generated with kit standards. The number of cells that either take up or exclude PI are measured by the FLOW cytometry machine and visualized by histograms using commercially available Cytologic software for each treatment group including all controls.
Biological variability in the magnitude of the response of THP-1 cell cultures requires that experiments be compared on the basis of percent change from "vehicle positive control" for each drug concentration. Percent change in each soluble protein evaluated from the "vehicle positive control" was calculated for each compound concentration with the following formula: % Change =(pg/ml(compound) - pg/ml (veh pos control))/(pg/ml (veh pos control) - pg/ml(veh neg control))x 100 [formula]
For the soluble protein (TNF-a, p75/80, p55/60, IL-8) studies under stimulated conditions, the mean pg/ml of duplicate wells were determined and the results expressed as percent change from "vehicle positive control". For the soluble protein (p75/80 and p55/60 receptors) studies under non-stimulated conditions, the mean pg/ml of duplicate wells were determined and the results expressed as percent change from "vehicle positive control" utilizing the following formula: % Change =(pg/ml (compound neg control) - pg/ml (veh neg control)/(pg/ml (veh neg control))X 100 [formula]
IC50 values for each compound are calculated by non-linear regression analysis using customized software utilizing the JUMP statistical package.

Sequence of TNF-α converting enzyme (TACE) (P78536 215-824, species assumed): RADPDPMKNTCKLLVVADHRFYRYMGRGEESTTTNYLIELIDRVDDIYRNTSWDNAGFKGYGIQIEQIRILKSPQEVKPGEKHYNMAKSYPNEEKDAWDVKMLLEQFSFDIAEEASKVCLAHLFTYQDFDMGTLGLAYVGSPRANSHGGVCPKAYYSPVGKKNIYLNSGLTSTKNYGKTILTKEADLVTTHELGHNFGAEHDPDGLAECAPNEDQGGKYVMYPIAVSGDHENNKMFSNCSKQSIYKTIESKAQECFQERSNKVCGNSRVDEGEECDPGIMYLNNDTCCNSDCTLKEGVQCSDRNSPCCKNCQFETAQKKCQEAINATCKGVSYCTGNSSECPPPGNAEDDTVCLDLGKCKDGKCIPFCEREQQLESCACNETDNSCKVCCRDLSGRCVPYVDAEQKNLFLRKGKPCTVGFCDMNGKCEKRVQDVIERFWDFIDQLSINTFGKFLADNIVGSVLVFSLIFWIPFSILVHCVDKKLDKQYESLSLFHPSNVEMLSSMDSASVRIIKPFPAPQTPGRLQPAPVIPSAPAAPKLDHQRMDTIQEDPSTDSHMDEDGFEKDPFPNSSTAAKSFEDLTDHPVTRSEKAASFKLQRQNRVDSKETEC
Sequence of MMP-9 (P14780 94-707): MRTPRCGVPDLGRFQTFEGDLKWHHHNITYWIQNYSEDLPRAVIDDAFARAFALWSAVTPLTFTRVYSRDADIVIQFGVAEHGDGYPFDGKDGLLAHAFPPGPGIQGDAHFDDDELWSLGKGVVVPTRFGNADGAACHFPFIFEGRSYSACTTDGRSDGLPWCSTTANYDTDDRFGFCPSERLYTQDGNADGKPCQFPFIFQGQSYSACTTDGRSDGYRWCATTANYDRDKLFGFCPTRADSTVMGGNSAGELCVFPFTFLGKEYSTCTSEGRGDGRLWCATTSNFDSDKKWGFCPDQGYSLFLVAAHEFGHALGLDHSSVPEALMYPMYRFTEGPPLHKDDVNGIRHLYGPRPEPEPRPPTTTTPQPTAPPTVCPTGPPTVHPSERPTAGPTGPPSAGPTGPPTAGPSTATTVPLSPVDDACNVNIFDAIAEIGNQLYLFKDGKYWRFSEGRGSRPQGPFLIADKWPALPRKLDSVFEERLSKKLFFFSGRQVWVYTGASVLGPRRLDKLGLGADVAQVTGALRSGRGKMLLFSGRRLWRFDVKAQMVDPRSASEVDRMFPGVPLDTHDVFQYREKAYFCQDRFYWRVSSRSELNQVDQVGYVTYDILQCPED

IC50 [1] [nM] | IC50 [2] [nM] | IC50 [3] [nM] | IC50 [4] [nM] | inhibition at 10 µM [1] [%] | Compound | % Inhib. @ 3µM THP [5] [%] | inhibition at 3 µM [5] [%]
– | 301 | 724 | 44 | 19 | Cc1cc(Br)cc(C(=O)NO)c1N(C)S(=O)(=O)c1ccc(OCC#CCNC2CCC2)cc1 [Example 31, 5-Bromo-2-{[4-(4-cyclobutylamino-but-2-ynyloxy)-benzenesulfonyl]-methyl-amino}-N-hydroxy-3-methyl-benzamide] | – | 6
– | 643 | 255 | 58 | 26 | CNCC#CCOc1ccc(S(=O)(=O)N(C)c2c(C)cc(Br)cc2C(=O)NO)cc1 [Example 32, 5-Bromo-N-hydroxy-3-methyl-2-{methyl-[4-(4-methylamino-but-2-ynyloxy)-benzenesulfonyl]-amino}-benzamide] | – | 15
– | 1200 | 908 | 29 | 32 | Cc1cc(Br)cc(C(=O)NO)c1N(C)S(=O)(=O)c1ccc(OCC#CCNCCCN(C)C)cc1 [Example 33, 5-Bromo-2-({4-[4-(3-dimethylamino-propylamino)-but-2-ynyloxy]-benzenesulfonyl}-methyl-amino)-N-hydroxy-3-methyl-benzamide] | – | 14
– | 790 | 383 | 127 | 39 | Cc1cc(Br)cc(C(=O)NO)c1N(C)S(=O)(=O)c1ccc(OCC#CCNCCN(C)C)cc1 [Example 34, 5-Bromo-2-({4-[4-(2-dimethylamino-ethylamino)-but-2-ynyloxy]-benzenesulfonyl}-methyl-amino)-N-hydroxy-3-methyl-benzamide] | – | 22
4240 | 578 | 518 | 135 | – | CC#CCOc1ccc(S(=O)(=O)N(C)c2c(C)cc(-c3ccccc3)cc2C(=O)NO)cc1 [Example 43, 4-[(4-But-2-ynyloxy-benzenesulfonyl)-methyl-amino]-5-methyl-biphenyl-3-carboxylic acid hydroxyamide] | – | 76
113 | 15 | 52 | 11 | – | C#CCOc1ccc(S(=O)(=O)N(C)c2c(C)cc(Br)cc2C(=O)NO)cc1 [Example 53, 5-Bromo-N-hydroxy-3-methyl-2-[methyl-(4-prop-2-ynyloxy-benzenesulfonyl)-amino]-benzamide] | – | 55
1620 | 304 | 154 | – | – | CC#CCOc1ccc(S(=O)(=O)N(C)c2c(C)cc(Br)cc2C(=O)NO)cc1 [Example 54, 5-Bromo-2-[(4-But-2-ynyloxy-benzenesulfonyl)-methyl-amino]-N-hydroxy-3-methyl-benzamide] | – | 84
1230 | 800 | 289 | 12 | – | CCC#CCOc1ccc(S(=O)(=O)N(C)c2c(C)cc(Br)cc2C(=O)NO)cc1 [Example 55, 5-Bromo-N-hydroxy-3-methyl-2-[methyl-(4-pent-2-ynyloxy-benzenesulfonyl)-amino]-benzamide] | – | 48
– | 389 | 701 | – | 53 | CCCCC#CCOc1ccc(S(=O)(=O)N(C)c2c(C)cc(Br)cc2C(=O)NO)cc1 [Example 56, 5-Bromo-2-[(4-hept-2-ynyloxy-benzenesulfonyl)-methyl-amino]-N-hydroxy-3-methyl-benzamide] | – | 16
– | 857 | 321 | 66 | – | Cc1cc(Br)cc(C(=O)NO)c1N(C)S(=O)(=O)c1ccc(OCC#Cc2ccccc2)cc1 [Example 59, 5-Bromo-N-hydroxy-3-methyl-2-{methyl-[4-(3-phenyl-prop-2-ynyloxy)-benzenesulfonyl]-amino}-benzamide] | – | 20
3200 | 477 | 83 | – | – | Cc1cc(Br)cc(C(=O)NO)c1N(C)S(=O)(=O)c1ccc(OCC#CCO)cc1 [Example 70, 5-Bromo-N-hydroxy-2-{[4-(4-hydroxy-but-2-ynyloxy)-benzenesulfonyl]-methyl-amino}-3-methyl-benzamide] | – | 88

Compound | IC50 [1] [nM] | IC50 [2] [nM] | IC50 [3] [nM] | IC50 [4] [nM] | inhibition at 10 µM [1] [%] | % Inhib. @ 3µM THP [5] [%] | inhibition at 3 µM [5] [%]
5-Bromo-2-[(4-butoxy-benzenesulfonyl)-methyl-amino]-N-hydroxy-3-methyl-benzamide [Example 39] | 2490 | 21 | 68 | 67 | – | 0 | –
COc1ccc(S(=O)(=O)N(C)c2c(C)cc(Br)cc2C(=O)NO)cc1 [Example 36, 5-Bromo-N-hydroxy-2-[(4-methoxy-benzenesulfonyl)-methyl-amino]-3-methyl-benzamide] | – | 11 | 21 | – | – | – | 14
